Assay: Kinetic study of reaction with glutathione (GSH), half-life by 1H NMR (disappearance of vinyl group)
Conditions: second order kinetics, 1.0 equiv. glutathione, phosphate buffer pH 7.3 in D2O:(CD3)2SO = 2:1, 1H NMR
Procedure: The reactivity of the vinyl sulfonimidamides was next examined under biologically relevant conditions using glutathione (GSH) as the nucleophile at pH 7.3 (Scheme 4).[32] The half-life (t1/2) was determined using ^1H NMR analysis, with the disappearance of the vinyl group monitored as a function of time (full experimental details are provided in the ESI ^†). […] Due to the rapid reaction rates, the half-life for the majority of substrates was calculated using second-order kinetics. However, the half-life of unfunctionalized α-Me and β-Me-substituted sulfonimidamide derivatives were determined with pseudo-first-order kinetics using six equivalents of glutathione.
Reaction was conducted in a mixture of buffer solution and deuterated DMSO
(Buffer:(CD3)2SO = 2:1). A relatively high (CD3)2SO ratio was employed due to the insolubility
of less polar substrates in the buffer solution.
Buffer solution containing 0.0648 mol/L disodium hydrogen phosphate and 0.0153 mol/L
potassium dihydrogen phosphate at p H 7.3[10] was prepared using d euterium oxide and
stored at 20 °C. […] The stock solution […]
For the majority of substrates, the half-life was determined using second order kinetics with […]
was measured and plotted as the inverse against time. The half-life was calculated through […]
starting material was plotted as natural log and the half-life was calculated through the best-

In the case of `C=CS(=O)(=NS(C)(=O)=O)N1CCOCC1` (stereo not shown) [Compound 3e], the “Half-life (t1/2) of reaction with GSH” value is reported as “too fast to be determined”.

Reference: publication PMC12163725, “Synthesis and functionalization of vinyl sulfonimidamides and their potential as electrophilic warheads” (Chemical Science, 2025)
